Source: patent EP4818179A1, “PREPARATION FOR AND USE OF PYRIMIDO-THIOPYRANDIONE INHIBITOR FOR KRAS G12C MUTANT PROTEIN” (Ya Therapeutics Inc, priority 2024, dated 2025)

Test system: H358 (KRAS G12C mutant) cells
Test: Tumor cell proliferation inhibition experiment (Cell Titer-Glo luminescent cell viability assay)
Settings: Homo sapiens, NCI-H358, 72 h, read-out: NCI-H538 IC50(nm)
Description: H358 (KRAS G12C mutant) cells were digested, centrifuged, and resuspended. Cell density was determined using a Scepter automated cell counter. The cells were diluted to a solution containing 44,000 cells per milliliter. The adjusted cell solution was added to 90 µL per well in a 96-well culture plate. The 96-well plate was placed in a 37°C, 5% CO2 incubator. After culturing the cells for 24 hours, different concentrations of the test compound were added. The cells were then cultured with the compound for 72 hours in the presence of 10% fetal bovine serum. The ATP content was measured using the Cell Titer-Glo luminescent cell viability assay kit (see manufacturer's instructions for details) to assess cell growth inhibition. In short, 30 µL of Cell Titer-Glo reagent was added to each well, and the plate was shaken for 10 minutes to induce cell lysis. The fluorescence signal was detected and recorded using a Fluoroskan Ascent FL (Thermo). The maximum signal value was obtained from cells treated with dimethyl sulfoxide for 72 hours. Minimum signal value was obtained from a single culture medium (zero cell count). Inhibition rate % = (maximum signal value - minimum signal value) / (maximum signal value - minimum signal value × 100%). Data was processed using GraphPadprism 5 software. IC50 values were calculated by fitting an S-shaped dose-response curve.

Row | Compound | IC50 [nM]
1 | C=C(F)C(=O)N1CCN(c2nc(OC[C@@]34CCCN3C[C@H](F)C4)nc3c2CS(=O)(=O)C(c2c(F)c(N)cc(C)c2C(F)(F)F)C3)[C@@H](C)C1 (stereo partly drawn) [Compound 2, 1-((3S)-4-(7-(3-amino-2-fluoro-5-methyl-6-(trifluoromethyl)phenyl)-2-(((2R,7AS)-2-fluorotetrahydro-1H-pyrrolazin-7a(5H)-yl)methoxy)-6,6-dioxo-7,8-dihydro-5H-thiaran[4,3-d]pyrimidin-4-yl)-3-methylpyrazin-1-yl)-2-fluoroprop-2-en-1-one] | < 10
2 | C=CC(=O)N1CCN(c2nc(OC[C@@]34CCCN3C[C@H](F)C4)nc3c2CS(=O)(=O)C(c2nc(N)cc(C)c2C(F)(F)F)C3)[C@@H](C)C1 (stereo partly drawn) [Compound 5, 1-((3S)-4-(7-(6-amino-4-methyl-3-(trifluoromethyl)pyridin-2-yl)-2-(((2R,7AS)-2-fluorotetrahydro-1H-pyrrolazin-7a(5H)-yl)methoxy)-6,6-dioxo-7,8-dihydro-5H-thiaran[4,3-d]pyrimidin-4-yl)-3-methylpyrazin-1-yl)prop-2-en-1-one] | < 10
3 | C=CC(=O)N1CCN(c2nc(OC[C@@]34CCCN3C[C@H](F)C4)nc3c2CS(=O)(=O)[C@@H](c2c(F)c(N)cc(C)c2C(F)(F)F)C3)[C@@H](C)C1 [Compound 1B, 1-((3S)-4-((7R)-7-(3-amino-2-fluoro-5-methyl-6-(trifluoromethyl)phenyl)-2-(((2R,7A S)-2-fluorotetrahydro-1H-pyrrolazin-7a(5H)-yl)methoxy)-6,6-dioxo-7,8-dihydro-5H-thiaran[4,3-d]pyrimidin-4-yl)-3-methylpyrazin-1-yl)prop-2-en-1-one] | < 10
4 | C=CC(=O)N1CCN(c2nc(OC[C@@]34CCCN3C[C@H](F)C4)nc3c2CS(=O)(=O)[C@H](c2nc(N)cc(C)c2C(F)(F)F)C3)C[C@@H]1CC#N [Compound 7A, 2-((2S)-4-((7S)-7-(6-amino-4-methyl-3-(trifluoromethyl)pyridin-2-yl)-2-(((2R,7AS)-2-fluorotetrahydro-1H-pyrrolazin-7a(5H)-yl)methoxy)-6,6-dioxo-7,8-dihydro-5H-thiaran[4,3-d]pyrimidin-4-yl)-1-(acryloyl)pyrazin-2-yl)acetonitrile] | < 10
5 | C=C(F)C(=O)N1CCN(c2nc(OC[C@@]34CCCN3C[C@H](F)C4)nc3c2CS(=O)(=O)[C@@H](c2c(F)c(N)cc(C)c2C(F)(F)F)C3)C[C@@H]1CC#N [Compound 4B, 2-((2S)-4-((7R)-7-(3-amino-2-fluoro-5-methyl-6-(trifluoromethyl)phenyl)-2-(((2R, 7A S)-2-fluorotetrahydro-1H-pyrrolazin-7a(5H)-yl)methoxy)-6,6-dioxo-7,8-dihydro-5H-thiaran[4,3-d]pyrimidin-4-yl)-1-(2-fluoroacryloyl)pyrazin-2-yl)acetonitrile] | < 10
6 | C=C(F)C(=O)N1CCN(c2nc(OC[C@@]34CCCN3C[C@H](F)C4)nc3c2CS(=O)(=O)[C@H](c2c(F)c(N)cc(C)c2C(F)(F)F)C3)C[C@@H]1CC#N [Compound 4A, 2-((2S)-4-((7S)-7-(3-amino-2-fluoro-5-methyl-6-(trifluoromethyl)phenyl)-2-(((2R, 7A S)-2-fluorotetrahydro-1H-pyrrolazin-7a(5H)-yl)methoxy)-6,6-dioxo-7,8-dihydro-5H-thiaran[4,3-d]pyrimidin-4-yl)-1-(2-fluoroacryloyl)pyrazin-2-yl)acetonitrile] | < 10
